Measurements taken from US20230015823A1, “METHODS OF ADMINISTERING VOXELOTOR” (Global Blood Therapeutics, Inc., priority 2019, published 2023).
Where two headings read alike, the source gives them in different places.

Assay: Phase 1 study of a single oral dose of voxelotor in subjects with hepatic impairment: whole blood and plasma PK
Type: in vivo, human
Settings: human; for half-life: read-out: t1/2, mean (converted); for Vd/F: read-out: Vz/F, GM (converted); for Tmax: read-out: tmax, median (converted)
Method: A Phase 1, open-label study was performed to characterize pharmacokinetics (PK) and safety of a single oral dose of voxelotor in subjects with hepatic impairment. The study was to assess the effects of mild, moderate, or severe hepatic impairment on the PK of a single oral dose of voxelotor, to evaluate the safety and tolerability of a single oral dose of voxelotor in subjects with mild, moderate, or severe hepatic impairment, as well as to establish potential dose adjustment guidance based upon the degree of hepatic insufficiency. […] This study was designed to assess the effects of mild, moderate, or severe hepatic impairment on the PK of a single oral dose of voxelotor. Routine safety assessments (AE monitoring, vital signs, physical examinations, clinical laboratory tests, and ECGs) were performed. Eligible subjects received a single oral dose of voxelotor 1500 mg (5×300-mg capsules) on Day 1 (for normal hepatic function, mild and moderate hepatic impairment). […] No food was allowed for at least 4 hours postdose. No water or any type of liquid was allowed for 1 hour before dosing through 1-hour postdose with the exception of water consumed for dosing. Adverse events and concomitant medication use were monitored throughout the study. Safety assessments, including physical examinations, vital signs assessments, 12-lead ECGs, and clinical laboratory tests, were performed. Whole blood and plasma concentrations of voxelotor were determined using validated assays. […] Louis, Mo.) and actual sampling times. The following PK parameters were determined. To assess the effect of hepatic impairment on the PK of voxelotor, a linear mixed-effect model was fitted to the log-transformed values of whole blood and plasma Cmax, AUCt, and AUCinf. The model included hepatic impairment group as a fixed effect and age and weight as covariates. Point estimates and 90% CIs for hepatic function group differences (mild, moderate, and severe hepatically-impaired subjects [test] versus the normal hepatic function subjects [control]) on the log scale were exponentiated to obtain estimates for GM ratios on the original scale. Voxelotor whole blood and plasma concentrations were measured using a validated liquid chromatography-mass spectrometry method. The lower limit of assay quantitation for voxelotor was 10.0 ng/mL for whole blood and 5.00 ng/mL in plasma.

[1] = plasma, po, 600 mg, plasma, severe hepatic impairment, 600 mg single oral dose
[2] = plasma, po, 1500 mg, plasma, mild hepatic impairment, 1500 mg single oral dose
[3] = plasma, po, 1500 mg, plasma, moderate hepatic impairment, 1500 mg single oral dose
[4] = plasma, po, 1500 mg, plasma, normal hepatic function, 1500 mg single oral dose

CC(C)n1nccc1-c1ncccc1COc1cccc(O)c1C=O [voxelotor, 2-hydroxy-6-((2-(1-isopropyl-1H-pyrazol-5-yl)pyridin-3-yl)methoxy)benzaldehyde]
half-life (in vivo, plasma, mild hepatic impairment, 1500 mg single oral dose): 71.4 h
AUC(0-inf) (plasma, oral, 600 mg, plasma, severe hepatic impairment (Test), 600 mg, adjusted for dose to 1500 mg, read-out: AUCinf, Geometric LS Mean): 394 µg·h/mL
AUC(0-t) (plasma, oral, 600 mg, plasma, severe hepatic impairment (Test), 600 mg, adjusted for dose to 1500 mg, read-out: AUCt, Geometric LS Mean): 388 µg·h/mL
Cmax (plasma, oral, 600 mg, plasma, severe hepatic impairment (Test), 600 mg, adjusted for dose to 1500 mg, read-out: Cmax, Geometric LS Mean): 2900 ng/mL
AUC(0-inf) (plasma, oral, 1500 mg, plasma, mild hepatic impairment (Test), 1500 mg, read-out: AUCinf, Geometric LS Mean): 223 µg·h/mL
AUC(0-t) (plasma, oral, 1500 mg, plasma, mild hepatic impairment (Test), 1500 mg, read-out: AUCt, Geometric LS Mean): 221 µg·h/mL
Cmax (plasma, oral, 1500 mg, plasma, mild hepatic impairment (Test), 1500 mg, read-out: Cmax, Geometric LS Mean): 2360 ng/mL
AUC(0-inf) (plasma, oral, 1500 mg, plasma, moderate hepatic impairment (Test), 1500 mg, read-out: AUCinf, Geometric LS Mean): 240 µg·h/mL
AUC(0-t) (plasma, oral, 1500 mg, plasma, moderate hepatic impairment (Test), 1500 mg, read-out: AUCt, Geometric LS Mean): 245 µg·h/mL
Cmax (plasma, oral, 1500 mg, plasma, moderate hepatic impairment (Test), 1500 mg, read-out: Cmax, Geometric LS Mean): 3030 ng/mL
AUC(0-inf) (plasma, oral, 1500 mg, plasma, normal hepatic function (Reference), 1500 mg, read-out: AUCinf, Geometric LS Mean): 204 µg·h/mL
AUC(0-t) (plasma, oral, 1500 mg, plasma, normal hepatic function (Reference), 1500 mg, read-out: AUCt, Geometric LS Mean): 203 µg·h/mL
Cmax (plasma, oral, 1500 mg, plasma, normal hepatic function (Reference), 1500 mg, read-out: Cmax, Geometric LS Mean): 2010 ng/mL
AUC(0-t) (plasma, po, 600 mg, plasma, severe hepatic impairment, 600 mg single oral dose, adjusted for dose to 1500 mg, read-out: AUC0-96, GM (converted)): 177 µg·h/mL
AUC(0-inf) (plasma, po, 600 mg, plasma, severe hepatic impairment, 600 mg single oral dose, adjusted for dose to 1500 mg, read-out: AUCinf, GM (converted)): 393 µg·h/mL
AUC(0-t) (plasma, po, 600 mg, plasma, severe hepatic impairment, 600 mg single oral dose, adjusted for dose to 1500 mg, read-out: AUCt, GM (converted)): 386 µg·h/mL
Cmax (plasma, po, 600 mg, plasma, severe hepatic impairment, 600 mg single oral dose, adjusted for dose to 1500 mg, read-out: Cmax, GM (converted)): 2960 ng/mL
Vd/F [1]: 592 L
half-life [1]: 109 h
Tmax [1]: 4 h
AUC(0-t) (plasma, po, 1500 mg, plasma, mild hepatic impairment, 1500 mg single oral dose, read-out: AUC0-96, GM (converted)): 143 µg·h/mL
AUC(0-inf) (plasma, po, 1500 mg, plasma, mild hepatic impairment, 1500 mg single oral dose, read-out: AUCinf, GM (converted)): 224 µg·h/mL
AUC(0-t) (plasma, po, 1500 mg, plasma, mild hepatic impairment, 1500 mg single oral dose, read-out: AUCt, GM (converted)): 223 µg·h/mL
Cmax (plasma, po, 1500 mg, plasma, mild hepatic impairment, 1500 mg single oral dose, read-out: Cmax, GM (converted)): 2390 ng/mL
Vd/F [2]: 674 L
Tmax [2]: 4 h
AUC(0-t) (plasma, po, 1500 mg, plasma, moderate hepatic impairment, 1500 mg single oral dose, read-out: AUC0-96, GM (converted)): 146 µg·h/mL
AUC(0-inf) (plasma, po, 1500 mg, plasma, moderate hepatic impairment, 1500 mg single oral dose, read-out: AUCinf, GM (converted)): 244 µg·h/mL
AUC(0-t) (plasma, po, 1500 mg, plasma, moderate hepatic impairment, 1500 mg single oral dose, read-out: AUCt, GM (converted)): 252 µg·h/mL
Cmax (plasma, po, 1500 mg, plasma, moderate hepatic impairment, 1500 mg single oral dose, read-out: Cmax, GM (converted)): 2910 ng/mL
Vd/F [3]: 789 L
half-life [3]: 90 h
Tmax [3]: 5 h
AUC(0-t) (plasma, po, 1500 mg, plasma, normal hepatic function, 1500 mg single oral dose, read-out: AUC0-96, GM (converted)): 120 µg·h/mL
AUC(0-inf) (plasma, po, 1500 mg, plasma, normal hepatic function, 1500 mg single oral dose, read-out: AUCinf, GM (converted)): 200 µg·h/mL
AUC(0-t) (plasma, po, 1500 mg, plasma, normal hepatic function, 1500 mg single oral dose, read-out: AUCt, GM (converted)): 199 µg·h/mL
Cmax (plasma, po, 1500 mg, plasma, normal hepatic function, 1500 mg single oral dose, read-out: Cmax, GM (converted)): 2010 ng/mL
Vd/F [4]: 865 L
half-life [4]: 80.8 h
Tmax [4]: 4 h
AUC(0-inf) (whole blood, oral, 600 mg, whole blood, severe hepatic impairment (Test), 600 mg, adjusted for dose to 1500 mg, read-out: AUCinf, Geometric LS Mean): 13600 µg·h/mL
AUC(0-t) (whole blood, oral, 600 mg, whole blood, severe hepatic impairment (Test), 600 mg, adjusted for dose to 1500 mg, read-out: AUCt, Geometric LS Mean): 13300 µg·h/mL
Cmax (whole blood, oral, 600 mg, whole blood, severe hepatic impairment (Test), 600 mg, adjusted for dose to 1500 mg, read-out: Cmax, Geometric LS Mean): 85400 ng/mL
AUC(0-inf) (whole blood, oral, 1500 mg, whole blood, mild hepatic impairment (Test), 1500 mg, read-out: AUCinf, Geometric LS Mean): 8160 µg·h/mL
AUC(0-t) (whole blood, oral, 1500 mg, whole blood, mild hepatic impairment (Test), 1500 mg, read-out: AUCt, Geometric LS Mean): 8120 µg·h/mL
Cmax (whole blood, oral, 1500 mg, whole blood, mild hepatic impairment (Test), 1500 mg, read-out: Cmax, Geometric LS Mean): 72900 ng/mL
AUC(0-inf) (whole blood, oral, 1500 mg, whole blood, moderate hepatic impairment (Test), 1500 mg, read-out: AUCinf, Geometric LS Mean): 8230 µg·h/mL
AUC(0-t) (whole blood, oral, 1500 mg, whole blood, moderate hepatic impairment (Test), 1500 mg, read-out: AUCt, Geometric LS Mean): 8190 µg·h/mL
Cmax (whole blood, oral, 1500 mg, whole blood, moderate hepatic impairment (Test), 1500 mg, read-out: Cmax, Geometric LS Mean): 64900 ng/mL
AUC(0-inf) (whole blood, oral, 1500 mg, whole blood, normal hepatic function (Reference), 1500 mg, read-out: AUCinf, Geometric LS Mean): 7150 µg·h/mL
AUC(0-t) (whole blood, oral, 1500 mg, whole blood, normal hepatic function (Reference), 1500 mg, read-out: AUCt, Geometric LS Mean): 7130 µg·h/mL
Cmax (whole blood, oral, 1500 mg, whole blood, normal hepatic function (Reference), 1500 mg, read-out: Cmax, Geometric LS Mean): 61400 ng/mL
AUC(0-t) (whole blood, po, 600 mg, whole blood, severe hepatic impairment, 600 mg single oral dose, adjusted for dose to 1500 mg, read-out: AUC0-96, GM (converted)): 6050 µg·h/mL
AUC(0-inf) (whole blood, po, 600 mg, whole blood, severe hepatic impairment, 600 mg single oral dose, adjusted for dose to 1500 mg, read-out: AUCinf, GM (converted)): 13600 µg·h/mL
AUC(0-t) (whole blood, po, 600 mg, whole blood, severe hepatic impairment, 600 mg single oral dose, adjusted for dose to 1500 mg, read-out: AUCt, GM (converted)): 13300 µg·h/mL
Cmax (whole blood, po, 600 mg, whole blood, severe hepatic impairment, 600 mg single oral dose, adjusted for dose to 1500 mg, read-out: Cmax, GM (converted)): 86600 ng/mL
Vd/F (whole blood, po, 600 mg, whole blood, severe hepatic impairment, 600 mg single oral dose): 17.6 L
